This note sets out measurements from publication PMC10215804, “Exploring Alternative Pathways to Target Bacterial Type II Topoisomerases Using NBTI Antibacterials: Beyond Halogen-Bonding Interactions” (Antibiotics, 2023).

For one experiment, the target named is T1, human topoisomerase IIα (Homo sapiens, UniProt P11388).
T1 construct: purchased Inspiralis (Norwich, UK)
The experiment is described as follows: human topoisomerase II alpha relaxation high-throughput assay (selectivity). The class given is biochemical. The conditions noted are these: residual activity at 100 µM compound; mean ± SD, two independent experiments; read-out: Human TopoIIα (% RA at 100 µM). The procedure: For selectivity determination, a human topoisomerase II alpha relaxation high-throughput assay was used. The assay kits and black streptavidin-coated 96-well microtiter plates are available from Inspiralis (Norwich, UK). Two independent measurements were performed with an inhibitory concentration of 100 µM. Raw data were calculated as the mean ± SD percentage of the residual enzyme activity.

For the next experiment, the target named is T2, E. coli DNA gyrase (Escherichia coli, UniProt P0AES4).
T2 construct: purchased Inspiralis (Norwich, UK)
Description: DNA gyrase supercoiling inhibition assay (high-throughput plate assay). The class given is biochemical. The method, then:
To determine the IC50 values of the compounds for S. aureus and E. coli, a DNA gyrase supercoiling high-throughput plate assay and a topoIV relaxation high-throughput plate assay were performed. Assay kits and black streptavidin-coated 96-well microtiter plates are available from Inspiralis (Norwich, UK). For pre-screening, an inhibitor concentration of 100 μM was used. […] A nonlinear regression-based fit of the inhibition curves was used, with the log [inhibitor] versus slope of the reaction variables (four parameters) and a symmetric equation. […] To determine IC50 values, two independent repetitions were performed and the average was calculated.

T2 sequence (P0AES4 whole entry): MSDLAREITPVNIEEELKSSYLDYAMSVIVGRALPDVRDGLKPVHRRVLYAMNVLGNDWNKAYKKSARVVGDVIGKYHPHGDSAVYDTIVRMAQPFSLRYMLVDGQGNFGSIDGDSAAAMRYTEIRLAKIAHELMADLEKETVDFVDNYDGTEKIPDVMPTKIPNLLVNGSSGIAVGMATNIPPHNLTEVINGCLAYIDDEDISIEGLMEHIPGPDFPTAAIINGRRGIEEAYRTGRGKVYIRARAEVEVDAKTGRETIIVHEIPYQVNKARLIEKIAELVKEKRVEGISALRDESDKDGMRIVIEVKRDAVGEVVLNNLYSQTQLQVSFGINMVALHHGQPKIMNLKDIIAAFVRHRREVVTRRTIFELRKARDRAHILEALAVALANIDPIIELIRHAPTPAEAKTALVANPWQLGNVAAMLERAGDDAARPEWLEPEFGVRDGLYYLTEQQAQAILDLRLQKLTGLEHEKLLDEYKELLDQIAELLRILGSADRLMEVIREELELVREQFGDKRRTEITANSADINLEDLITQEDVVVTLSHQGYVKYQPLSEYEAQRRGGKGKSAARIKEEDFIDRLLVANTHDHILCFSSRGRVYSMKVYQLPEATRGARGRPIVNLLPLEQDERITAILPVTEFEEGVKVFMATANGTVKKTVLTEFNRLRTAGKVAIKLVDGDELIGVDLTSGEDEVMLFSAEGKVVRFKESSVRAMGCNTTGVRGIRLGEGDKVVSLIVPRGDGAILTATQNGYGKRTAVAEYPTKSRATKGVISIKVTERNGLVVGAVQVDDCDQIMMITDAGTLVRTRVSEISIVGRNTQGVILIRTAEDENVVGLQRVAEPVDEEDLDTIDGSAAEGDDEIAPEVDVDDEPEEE
T1 sequence (P11388 whole entry): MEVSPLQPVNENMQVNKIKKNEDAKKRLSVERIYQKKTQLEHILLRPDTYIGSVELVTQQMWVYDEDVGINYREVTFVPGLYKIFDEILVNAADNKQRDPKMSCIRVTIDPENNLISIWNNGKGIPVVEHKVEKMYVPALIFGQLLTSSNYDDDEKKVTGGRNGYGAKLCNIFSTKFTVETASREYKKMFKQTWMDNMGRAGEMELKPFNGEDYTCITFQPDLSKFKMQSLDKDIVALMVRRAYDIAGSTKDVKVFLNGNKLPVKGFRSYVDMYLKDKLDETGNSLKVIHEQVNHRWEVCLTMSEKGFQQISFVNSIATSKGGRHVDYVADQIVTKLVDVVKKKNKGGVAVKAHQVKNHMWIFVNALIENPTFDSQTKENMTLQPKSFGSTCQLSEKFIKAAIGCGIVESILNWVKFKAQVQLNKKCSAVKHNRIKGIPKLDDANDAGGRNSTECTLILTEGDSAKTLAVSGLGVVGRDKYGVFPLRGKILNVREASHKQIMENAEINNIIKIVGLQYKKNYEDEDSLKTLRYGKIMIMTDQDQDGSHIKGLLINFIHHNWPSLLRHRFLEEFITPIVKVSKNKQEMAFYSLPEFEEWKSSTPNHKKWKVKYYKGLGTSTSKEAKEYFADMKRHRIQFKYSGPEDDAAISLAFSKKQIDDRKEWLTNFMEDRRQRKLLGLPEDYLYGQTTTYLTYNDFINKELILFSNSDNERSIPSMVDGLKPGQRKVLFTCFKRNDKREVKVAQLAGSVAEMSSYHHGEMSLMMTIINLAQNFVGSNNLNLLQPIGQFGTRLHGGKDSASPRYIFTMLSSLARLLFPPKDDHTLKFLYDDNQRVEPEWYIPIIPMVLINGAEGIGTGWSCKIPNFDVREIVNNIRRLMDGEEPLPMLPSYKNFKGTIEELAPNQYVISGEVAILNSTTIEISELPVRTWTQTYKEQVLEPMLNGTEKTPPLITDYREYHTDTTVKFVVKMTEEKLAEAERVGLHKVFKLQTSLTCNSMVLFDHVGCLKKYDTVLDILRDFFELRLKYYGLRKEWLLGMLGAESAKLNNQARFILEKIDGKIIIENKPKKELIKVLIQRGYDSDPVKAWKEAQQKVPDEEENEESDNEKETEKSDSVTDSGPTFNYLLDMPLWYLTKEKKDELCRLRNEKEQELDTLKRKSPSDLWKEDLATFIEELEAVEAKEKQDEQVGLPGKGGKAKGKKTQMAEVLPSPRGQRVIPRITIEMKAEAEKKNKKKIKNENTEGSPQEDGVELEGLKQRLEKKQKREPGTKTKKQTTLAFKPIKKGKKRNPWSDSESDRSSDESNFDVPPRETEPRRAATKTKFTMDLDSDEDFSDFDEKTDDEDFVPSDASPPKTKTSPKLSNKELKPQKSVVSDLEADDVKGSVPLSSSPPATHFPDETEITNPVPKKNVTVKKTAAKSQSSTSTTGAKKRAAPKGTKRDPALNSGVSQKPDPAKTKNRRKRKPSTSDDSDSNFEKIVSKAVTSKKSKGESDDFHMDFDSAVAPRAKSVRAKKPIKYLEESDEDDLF

On to `COc1ccc2nccc(C(O)CC3CCC(NCc4ccc(C)cc4)CC3)c2n1` (centres unmarked) [Compound 8, 1-(6-Methoxy-1,5-naphthyridin-4-yl)-2-(4-((4-methylbenzyl)amino)cyclohexyl)ethan-1-ol], for which the remaining activity at 100 µM on human topoisomerase IIα stood at 100 ± 1%. At E. coli DNA gyrase, this compound returned an IC50 of 1.32 ± 0.46 µM.
Regarding `COc1ccc2nccc(OCC3CCC(NCc4ccc(C)cc4)CO3)c2n1` (centres unmarked) [Compound 7, 6-(((6-Methoxy-1,5-naphthyridin-4-yl)oxy)methyl)-N-(4-methylbenzyl)tetrahydro-2H-pyran-3-amine], the remaining activity at 100 µM at human topoisomerase IIα came to 101%. On E. coli DNA gyrase, this compound gave an IC50 of 1.31 ± 0.348 µM.
In the same order, the values of `COc1ccc2nccc(CCN3CCC(NCc4ccc(C)cc4)CC3)c2n1` [Compound 5, 1-(2-(6-Methoxy-1,5-naphthyridin-4-yl)ethyl)-N-(4-methylbenzyl)piperidin-4-amine] are 103% and 1.019 ± 0.005 µM.
In the same order, the values of `COc1ccc2nccc(OCC3CCC(NCc4ccc(C)cc4)CC3)c2n1` (centres unmarked) [Compound 6] are 101% and 1.52 ± 0.361 µM.
